{"source": "patent US8454582B2", "about": "“Methods and devices for the treatment of ocular conditions” (Surmodics, Inc., priority 2004, dated 2013)", "key": {"[1]": {"assay": "In vivo elution: HPLC detection of TA in tissues after 4-week subretinal PCL/TA implantation", "details": "four weeks after subretinal implant, PCL/TA 60:40, rabbit"}, "[2]": {"details": "72 hours after injection; cited from earlier work"}}, "data": [{"smiles": "CC1(C)O[C@@H]2C[C@H]3[C@@H]4CCC5=CC(=O)C=C[C@]5(C)[C@@]4(F)[C@@H](O)C[C@]3(C)[C@]2(C(=O)CO)O1", "note": "[TA, Triamcinolone acetonide]", "values": [{"measurement": "TA in the anterior structures (HPLC)", "setting": "[1]", "value": "not detected"}, {"measurement": "TA in the blood (HPLC)", "setting": "[1]", "value": "not detected"}, {"measurement": "TA in the posterior tissue samples (HPLC)", "setting": "[1]", "value": "confirmed the presence"}]}, {"smiles": "C[C@]12C=CC(=O)C=C1CC[C@H]1[C@@H]3C[C@@H](O)[C@](O)(C(=O)CO)[C@@]3(C)C[C@H](O)[C@@]12F", "note": "[triamcinolone]", "values": [{"measurement": "triamcinolone present in the vitreous that is associated with other tissues including the retina, pigment epithelium, and sclera", "setting": "[2]", "value": "less than 1%"}]}]}
